The record followed here is ChEMBL document CHEMBL5338706, “Discovery of a potent and selective proteolysis targeting chimera (PROTAC) degrader of NSD3 histone methyltransferase” (Eur J Med Chem, 2022).

The subject of one assay is A549. Kind of assay: Antitumor activity against human A549 cells xenografted mouse model assessed as reduction in NSD3 expression level at 100 mg/kg, ip measured within 36 hrs by Western blot analysis. It is filed as functional, organism-based. For orientation: A xenograft is tissue or cells of one species grown in another, often human tumour cells in immunodeficient mice.

Assay [1] concerns NCI-H520. Kind of assay: Induction of apoptosis in human NCI-H520 cells assessed as decrease in Bcl-XL protein expression at 5 to 10 uM by Western blot analysis. Type of assay: functional, cell-based. The note with it: dose 5-10 µM.
The test system of assay [2] is NCI-H1703. Kind of assay: Induction of apoptosis in human NCI-H1703 cells assessed as necrotic cells at 3 uM measured after 72 hrs by PI/Annexin-V staining based flow cytometry analysis (reference value: 2.80% ). It is filed as functional.
The test system of assay [3] is NCI-H1703. Briefly: Induction of apoptosis in human NCI-H1703 cells assessed as decrease in MCL-1 protein expression at 5 uM by measuring fold change by Western blot analysis relative to control. Type of assay: functional.
The test system of assay [4] is NCI-H520. Kind of assay: Induction of apoptosis in human NCI-H520 cells assessed as decrease in NSD3 protein expression at 5 uM by measuring fold change by Western blot analysis relative to control. Type of assay: functional.
Assay [5] can be described thus: Downregulation of NSD3 level in human NCI-H1703 cells at 3 uM by measuring fold change by Western blot analysis relative to control. Type of assay: functional. Background: Immunoblotting shows a protein as a band on a membrane.
Assay [6] in a line: Downregulation of Cyclin D1 level in human NCI-H520 cells at 5 uM by measuring fold change by Western blot analysis relative to control. Type of assay: functional.
For assay [7], the system named is NCI-H1703. Kind of assay: Induction of apoptosis in human NCI-H1703 cells assessed as decrease in NSD3 protein expression at 10 uM by measuring fold change by Western blot analysis relative to control. Type of assay: functional.
The nature of assay [8]: Downregulation of c-Myc level in human NCI-H1703 cells at 3 uM by measuring fold change by Western blot analysis relative to control. It is filed as functional.
Assay [9] has as its target T1, Histone-lysine N-methyltransferase NSD3 (Homo sapiens) (UniProt Q9BZ95).
T1 sequence (whole entry): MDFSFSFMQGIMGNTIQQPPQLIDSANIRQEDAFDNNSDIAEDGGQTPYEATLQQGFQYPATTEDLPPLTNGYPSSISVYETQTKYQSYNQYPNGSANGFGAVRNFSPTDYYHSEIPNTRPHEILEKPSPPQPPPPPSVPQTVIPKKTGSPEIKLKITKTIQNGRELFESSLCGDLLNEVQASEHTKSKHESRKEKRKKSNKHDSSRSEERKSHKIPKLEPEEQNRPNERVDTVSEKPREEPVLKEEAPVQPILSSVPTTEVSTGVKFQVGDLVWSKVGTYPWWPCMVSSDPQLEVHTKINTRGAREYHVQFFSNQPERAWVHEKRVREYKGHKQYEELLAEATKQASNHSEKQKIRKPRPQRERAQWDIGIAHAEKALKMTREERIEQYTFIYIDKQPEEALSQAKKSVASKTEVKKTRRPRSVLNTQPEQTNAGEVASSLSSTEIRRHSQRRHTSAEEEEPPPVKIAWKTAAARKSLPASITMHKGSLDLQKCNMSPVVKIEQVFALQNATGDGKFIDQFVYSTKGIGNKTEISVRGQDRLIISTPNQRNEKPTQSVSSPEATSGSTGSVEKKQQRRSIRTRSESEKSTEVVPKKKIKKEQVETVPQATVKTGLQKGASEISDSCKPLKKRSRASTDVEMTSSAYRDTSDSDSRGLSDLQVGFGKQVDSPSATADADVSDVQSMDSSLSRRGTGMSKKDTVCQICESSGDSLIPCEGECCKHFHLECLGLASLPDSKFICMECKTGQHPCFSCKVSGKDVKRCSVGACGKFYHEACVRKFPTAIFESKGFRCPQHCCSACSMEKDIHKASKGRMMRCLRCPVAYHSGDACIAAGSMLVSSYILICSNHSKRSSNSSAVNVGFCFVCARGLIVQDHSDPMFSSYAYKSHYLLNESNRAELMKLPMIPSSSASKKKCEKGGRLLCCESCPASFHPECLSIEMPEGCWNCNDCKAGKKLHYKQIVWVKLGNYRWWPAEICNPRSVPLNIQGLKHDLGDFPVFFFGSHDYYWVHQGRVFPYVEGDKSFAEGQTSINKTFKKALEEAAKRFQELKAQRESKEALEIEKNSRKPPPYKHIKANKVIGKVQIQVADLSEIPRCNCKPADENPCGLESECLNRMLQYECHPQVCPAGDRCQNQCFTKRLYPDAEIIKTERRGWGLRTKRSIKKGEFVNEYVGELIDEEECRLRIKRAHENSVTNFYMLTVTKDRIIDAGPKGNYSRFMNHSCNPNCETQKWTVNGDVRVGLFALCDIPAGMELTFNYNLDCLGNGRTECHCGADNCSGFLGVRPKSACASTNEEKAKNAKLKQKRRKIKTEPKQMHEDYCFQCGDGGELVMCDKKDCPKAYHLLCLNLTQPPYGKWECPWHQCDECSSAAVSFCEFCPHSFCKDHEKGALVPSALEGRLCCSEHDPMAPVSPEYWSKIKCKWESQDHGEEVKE
Briefly: Induction of NSD3 degradation in human A549 cells assessed as reduction in H3K36me3 methylation incubated for 72 hrs by Western blot analysis. It is filed as cell-based. The note with it: dose 5-10 µM.

Assay [10] concerns NCI-H1703. Briefly: Downregulation of c-Myc level in human NCI-H1703 cells at 3 to […] by Western blot analysis. It is filed as functional, cell-based. The following applies: dose 3-7.5 µM.
The target of assay [11] is T1, Histone-lysine N-methyltransferase NSD3 (Homo sapiens). Kind of assay: Induction of NSD3 degradation in human NCI-H1703 cells at 3 uM incubated for 48 hrs in presence of MG132 by Western blot analysis. It is filed as cell-based.
In assay [12] the test system is NCI-H1703. Kind of assay: Induction of apoptosis in human NCI-H1703 cells assessed as early apoptotic cells at 10 uM measured after 72 hrs by PI/Annexin-V staining based flow cytometry analysis (reference value: 1.47% ). Type of assay: functional.
In assay [13] the test system is NCI-H520. Briefly: Induction of apoptosis in human NCI-H520 cells assessed as decrease in MCL-1 protein expression at 5 uM by measuring fold change by Western blot analysis relative to control. It is filed as functional.
Assay [14] can be described thus: Downregulation of c-Myc level in human NCI-H1703 cells at […] by measuring fold change by Western blot analysis relative to control. Type of assay: functional. The note with it: dose 7.5 µM.

Calls of active or inactive are those of the source. The rule behind the calls is not given here.

As to `Cc1cc(CNCCCCCCCCCCC(=O)N[C@H](C(=O)N2C[C@H](O)C[C@H]2C(=O)N[C@@H](C)c2ccc(-c3scnc3C)cc2)C(C)(C)C)cc(C)c1-c1ncn(C)c1-c1ccnc2cc(F)ccc12`, the result with A549, in the assay with NCI-H520 [1] and in the assay on NCI-H1703 [10] was Active. Further, the Activity is 1.34% in the assay on NCI-H1703 [2], “Dose-Dependent Effect” in assay [9] and 12.8% with NCI-H1703 [12]. Moreover, the “fold change (FC)” value with NCI-H1703 [3] was 0.8; with NCI-H520 [4] it was 0.83; in [5], 0.97; in [6] it was 0.8; in the assay with NCI-H1703 [7] it was 0.63; in [8], 0.86. Moreover, the results for the “fold change (FC)” value (in the assay with NCI-H520 [13]; in assay [14]) were 0.86 and 0.72, respectively. Also, the outcome in [11] was inactive.
